Measurements as given in patent US10196373B2, “Substituted 2-hydroxy-4-(2-(phenylsulfonamido)acetamido)benzoic acid analogs as inhibitors of STAT protein” (University of Central Florida Research Foundation, Inc., priority 2010, dated 2019).

Each compound was assayed against STAT3 (Homo sapiens (Human), UniProt P40763) (assay: Fluorescence polarization assay, inhibition of binding to STAT3). Settings: inhibition of binding to STAT3 in a fluorescence polarization assay; read-out: Ki (FP).
Description: The fluorescent polarization experiments were performed on an Infinite M1000 (Tecan, Crailsheim, Germany). All assays were performed in the same buffer conditions of 50 mM NaCl, 10 mM Hepes, pH 7.5, 1 mM EDTA, and 2 mM dithiothreitol. Fluorescent-labelled peptides were kept at a final concentration of 10nM in buffered solution. […] of labelled peptides were added to […] of a 300 nM STAT3 protein solution (provided by SignalChem in 50 mM Tris-HCl, pH 7.5, 150 mM NaCl, 0.25 mM DTT, 0.1 mM PMSF, 25% glycerol and stored at −80° C.). Inhibitory molecules were dissolved in pure DMSO and diluted using buffer solution to produce four final concentrations ([…]). 7.5 μL of the inhibitory molecule solution was mixed with the STAT3 protein and labelled peptide solution in black 384-flat well microplates (Coming), and incubated for 15-30 minutes. The M1000 performed a shaking cycle and then read the plates. IC50′s were derived from the output using the curve-fitting software OriginPro 8 (Northampton, MA). The FP data was modelled by the following equation:
[formula] where X was the concentration of inhibitor and ρwas the corresponding fluorescence at that concentration. The free parameter was half the maximal inhibitory concentration (IC50) and the limiting values was the maximal measured fluorescence polarization (ρ1) and the minimal fluorescence polarization (ρ2). Origin curve fitting software utilizes the Levenberg-Marquardt algorithm and reduced chi-square criterion for convergence. The inhibitor dissociation constant, Ki, was calculated from the derived IC50 values, as per the following formula: […]
Further details of the fluorescence polarization assay are as described previously (Zhang X, et al. (2010) A novel small-molecule disrupts Stat3 SH2domainphosphotyrosine interactions and Stat3-dependent tumor processes. Biochem Pharmacol 79: 1398-1409).

Chain of STAT3 (P40763 whole entry): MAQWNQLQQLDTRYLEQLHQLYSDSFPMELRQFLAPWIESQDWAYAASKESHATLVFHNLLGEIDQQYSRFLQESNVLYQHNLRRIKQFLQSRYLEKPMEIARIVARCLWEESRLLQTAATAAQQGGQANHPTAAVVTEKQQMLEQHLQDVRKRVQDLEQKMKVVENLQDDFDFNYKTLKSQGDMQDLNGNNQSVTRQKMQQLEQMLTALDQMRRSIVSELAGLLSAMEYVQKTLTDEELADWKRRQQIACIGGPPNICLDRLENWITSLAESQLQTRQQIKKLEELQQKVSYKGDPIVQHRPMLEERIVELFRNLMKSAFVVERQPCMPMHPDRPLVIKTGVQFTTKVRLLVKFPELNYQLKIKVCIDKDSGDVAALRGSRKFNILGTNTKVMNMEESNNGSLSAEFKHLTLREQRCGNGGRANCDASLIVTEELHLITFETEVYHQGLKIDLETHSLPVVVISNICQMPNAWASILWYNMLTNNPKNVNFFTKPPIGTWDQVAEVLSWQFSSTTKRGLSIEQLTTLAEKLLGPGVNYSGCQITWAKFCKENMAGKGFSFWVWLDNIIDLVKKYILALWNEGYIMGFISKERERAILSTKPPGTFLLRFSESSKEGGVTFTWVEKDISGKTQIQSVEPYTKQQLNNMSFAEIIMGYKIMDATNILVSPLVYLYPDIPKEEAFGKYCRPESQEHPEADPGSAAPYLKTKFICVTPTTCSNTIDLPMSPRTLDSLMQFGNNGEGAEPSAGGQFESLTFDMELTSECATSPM

Structure (SMILES) | Ki [µM]
Cc1ccc(S(=O)(=O)N(CC(=O)N(Cc2ccc(C3CCCCC3)cc2)c2ccc(C(=O)O)c(O)c2)Cc2ccccc2)cc1 [BP2-027] | 7.2 ± 2.2
Cc1ccc(CN(CC(=O)N(Cc2ccc(C3CCCCC3)cc2)c2ccc(C(=O)O)c(O)c2)S(=O)(=O)c2ccc(C)cc2)cc1 [BP2-028] | > 50
Cc1ccc(S(=O)(=O)N2CCC[C@H]2C(=O)N(Cc2ccc(C3CCCCC3)cc2)c2ccc(C(=O)O)c(O)c2)cc1 [BP2-029] | 33 ± 22
Cc1ccc(S(=O)(=O)N2CCC[C@@H]2C(=O)N(Cc2ccc(C3CCCCC3)cc2)c2ccc(C(=O)O)c(O)c2)cc1 [BP2-032] | > 50
CCCN(CC(=O)N(Cc1ccc(C2CCCCC2)cc1)c1ccc(C(=O)O)c(O)c1)S(=O)(=O)c1ccc(C)cc1 [BP2-033] | 8.9 ± 1.4
Cc1ccc(S(=O)(=O)N(CC(=O)N(Cc2ccc(C3CCCCC3)cc2)c2ccc(C(=O)O)c(O)c2)CC(C)C)cc1 [BP2-046] | 8.3 ± 0.3
Cc1ccc(S(=O)(=O)N(CC(=O)N(Cc2ccc(C3CCCCC3)cc2)c2ccc(C(=O)O)c(O)c2)Cc2ccccc2C)cc1 [BP2-047] | 2.6 ± 0.2
Cc1ccc(S(=O)(=O)N(CC(=O)N(Cc2ccc(C3CCCCC3)cc2)c2ccc(C(=O)O)c(O)c2)Cc2cccc(C)c2)cc1 [BP2-056] | 2.6 ± 0.2
Cc1ccc(S(=O)(=O)N(CC(=O)N(Cc2ccc(C3CCCCC3)cc2)c2ccc(C(=O)O)c(O)c2)Cc2ccc3ccccc3c2)cc1 [BP2-057] | 2.5 ± 1
Cc1ccc(S(=O)(=O)N(CC(=O)N(Cc2ccc(C3CCCCC3)cc2)c2ccc(C(=O)O)c(O)c2)Cc2ccccc2C(F)(F)F)cc1 [BP2-061] | 1.8 ± 2.3
Cc1ccc(S(=O)(=O)N(CC(=O)N(Cc2ccc(C3CCCCC3)cc2)c2ccc(C(=O)O)c(O)c2)Cc2ccc(F)cc2)cc1 [BP2-065] | 3.8 ± 1.6
Cc1ccc(S(=O)(=O)N(CC(=O)N(Cc2ccc(C3CCCCC3)cc2)c2ccc(C(=O)O)c(O)c2)Cc2cccc(F)c2)cc1 [BP2-066] | 4.4 ± 0.3
Cc1ccc(S(=O)(=O)N(CC(=O)N(Cc2ccc(C3CCCCC3)cc2)c2ccc(C(=O)O)c(O)c2)Cc2ccccc2F)cc1 [BP2-067] | 5.3 ± 0.3
Cc1ccc(S(=O)(=O)N(CC(=O)N(Cc2ccc(C3CCCCC3)cc2)c2ccc(C(=O)O)c(O)c2)Cc2c(F)c(F)c(F)c(F)c2F)cc1 [BP2-068] | 4.5 ± 1.9
Cc1ccc(S(=O)(=O)N(CC(=O)N(Cc2ccc(C3CCCCC3)cc2)c2ccc(C(=O)O)c(O)c2)Cc2ccncc2)cc1 [BP2-086] | 23.3 ± 0.7
Cc1ccc(S(=O)(=O)N(CC(=O)N(Cc2ccc(C3CCCCC3)cc2)c2ccc(C(=O)O)c(O)c2)Cc2c(F)cc(F)c(F)c2F)cc1 [BP2-119] | 7.7 ± 1
Cc1ccc(S(=O)(=O)N(CC(=O)N(Cc2ccc(C3CCCCC3)cc2)c2ccc(C(=O)O)c(O)c2)Cc2cc(F)c(F)c(F)c2F)cc1 [BP2-120] | 11.1 ± 0.6
Cc1ccc(S(=O)(=O)N(CC(=O)N(Cc2ccc(C3CCCCC3)cc2)c2ccc(C(=O)O)c(O)c2)Cc2c(F)c(F)cc(F)c2F)cc1 [BP2-121] | 11.4 ± 0.4
Cc1ccc(S(=O)(=O)N(CC(N)=O)CC(=O)N(Cc2ccc(C3CCCCC3)cc2)c2ccc(C(=O)O)c(O)c2)cc1 [BP2-124] | 48.7 ± 14.2
C=CCN(CC(=O)N(Cc1ccc(C2CCCCC2)cc1)c1ccc(C(=O)O)c(O)c1)S(=O)(=O)c1ccc(C)cc1 [BP2-125] | 27.9 ± 5
Cc1ccc(S(=O)(=O)N(CC(=O)N(Cc2ccc(C3CCCCC3)cc2)c2ccc(C(=O)O)c(O)c2)Cc2cccnc2)cc1 [BP2-130] | 25.4 ± 0.8
Cc1ccc(S(=O)(=O)N(CC(=O)N(Cc2ccc(C3CCCCC3)cc2)c2ccc(C(=O)O)c(O)c2)Cc2ccccn2)cc1 [BP2-131] | 22.6 ± 3
Cc1ccc(S(=O)(=O)N(CC(=O)N(Cc2ccc(C3CCCCC3)cc2)c2ccc(C(=O)O)c(O)c2)Cc2ccc([N+](=O)[O-])cc2)cc1 [BP3-014] | 5.5 ± 3.7
Cc1ccc(S(=O)(=O)N(C)CC(=O)N(Cc2ccc(C3CCN(C(=O)OC(C)(C)C)CC3)cc2)c2ccc(C(=O)O)c(O)c2)cc1 [Compound 27KC, 4-(N-(4-(1-(tert-butoxycarbonyl)piperidin-4-yl)benzyl)-2-(N,4-dimethylphenylsulfon-amido)acetamido)-2-hydroxybenzoic acid] | 18.7 ± 1.4

The remaining lines, values ahead:

Ki [µM] | Structure (SMILES)
6.2 ± 1.6 | Cc1ccc(S(=O)(=O)N(CC(=O)N(Cc2ccc(C3CCCCC3)cc2)c2ccc(C(=O)O)c(O)c2)Cc2cccc(N)c2)cc1 [BP3-016]
12 ± 0.5 | Cc1ccc(S(=O)(=O)N(CC(=O)N(Cc2ccc(C3CCCCC3)cc2)c2ccc(C(=O)O)c(O)c2)Cc2ccccc2N)cc1 [BP3-018]
2.5 ± 2.2 | Cc1ccc(S(=O)(=O)N(CC(=O)N(Cc2ccc(C3CCCCC3)cc2)c2ccc(C(=O)O)c(O)c2)Cc2cccc([N+](=O)[O-])c2)cc1 [BP3-019]
5 ± 6.5 | Cc1ccc(S(=O)(=O)N(CC(=O)N(Cc2ccc(C3CCCCC3)cc2)c2ccc(C(=O)O)c(O)c2)Cc2ccccc2[N+](=O)[O-])cc1 [BP3-020]
4.3 ± 0.7 | Cc1ccc(S(=O)(=O)N(CC(=O)N(Cc2ccc(C3CCCCC3)cc2)c2ccc(C(=O)O)c(O)c2)Cc2ccc(C#N)cc2)cc1 [BP3-021]
6.2 ± 0.8 | Cc1ccc(S(=O)(=O)N(CC(=O)N(Cc2ccc(C3CCCCC3)cc2)c2ccc(C(=O)O)c(O)c2)Cc2cccc(C#N)c2)cc1 [BP3-023]
11.3 ± 0.8 | Cc1ccc(S(=O)(=O)N(CC(=O)N(Cc2ccc(C3CCCCC3)cc2)c2ccc(C(=O)O)c(O)c2)Cc2ccccc2C#N)cc1 [BP3-024]
3.1 ± 0.1 | Cc1ccc(S(=O)(=O)N(CC(=O)N(Cc2ccc(C3CCCCC3)cc2)c2ccc(C(=O)O)c(O)c2)Cc2ccc(Cl)cc2)cc1 [SH3-076]
3 ± 4.1 | Cc1ccc(S(=O)(=O)N(CC(=O)N(Cc2ccc(C3CCCCC3)cc2)c2ccc(C(=O)O)c(O)c2)Cc2cccc(Cl)c2)cc1 [SH3-077]
7.9 ± 0.3 | Cc1ccc(S(=O)(=O)N(CC(=O)N(Cc2ccc(C3CCCCC3)cc2)c2ccc(C(=O)O)c(O)c2)Cc2ccccc2Cl)cc1 [SH3-079]
3.8 ± 1.5 | CCOC(=O)c1ccc(CN(CC(=O)N(Cc2ccc(C3CCCCC3)cc2)c2ccc(C(=O)O)c(O)c2)S(=O)(=O)c2ccc(C)cc2)cc1 [XW1-053]
4 ± 1.1 | Cc1ccc(S(=O)(=O)N(CC(=O)N(Cc2ccc(C3CCCCC3)cc2)c2ccc(C(=O)O)c(O)c2)Cc2cccc(OC(F)(F)F)c2)cc1 [XW1-055]
4.8 ± 0.6 | Cc1ccc(S(=O)(=O)N(CC(=O)N(Cc2ccc(C3CCCCC3)cc2)c2ccc(C(=O)O)c(O)c2)Cc2ccc(SC(F)(F)F)cc2)cc1 [XW1-057]
4.6 ± 1.6 | Cc1ccc(S(=O)(=O)N(CC(=O)N(Cc2ccc(C3CCCCC3)cc2)c2ccc(C(=O)O)c(O)c2)Cc2ccc(C(F)(F)F)cc2)cc1 [XW1-059]
3.6 ± 0.5 | Cc1ccc(S(=O)(=O)N(CC(=O)N(Cc2ccc(C3CCCCC3)cc2)c2ccc(C(=O)O)c(O)c2)Cc2ccccc2OC(F)(F)F)cc1 [XW1-061]
5.5 ± 0.4 | Cc1ccc(S(=O)(=O)N(CC(=O)N(Cc2ccc(C3CCCCC3)cc2)c2ccc(C(=O)O)c(O)c2)Cc2ccc(F)cc2C(F)(F)F)cc1 [XW1-075]
5.9 ± 0.6 | Cc1ccc(S(=O)(=O)N(CC(=O)N(Cc2ccc(C3CCCCC3)cc2)c2ccc(C(=O)O)c(O)c2)Cc2ccc(OC(F)(F)F)cc2)cc1 [XW1-077]
5.1 ± 0.4 | Cc1ccc(S(=O)(=O)N(CC(=O)N(Cc2ccc(C3CCCCC3)cc2)c2ccc(C(=O)O)c(O)c2)Cc2cccc(C(F)(F)F)c2)cc1 [XW1-079]
9.2 ± 0.8 | COC(=O)c1cccc(CN(CC(=O)N(Cc2ccc(C3CCCCC3)cc2)c2ccc(C(=O)O)c(O)c2)S(=O)(=O)c2ccc(C)cc2)c1 [XW1-081]
5.8 ± 0.6 | COC(=O)c1ccc(CN(CC(=O)N(Cc2ccc(C3CCCCC3)cc2)c2ccc(C(=O)O)c(O)c2)S(=O)(=O)c2ccc(C)cc2)cc1 [XW1-083]

What follows are compounds tested on DU-145 cells (assay: Cell viability, MTS assay). Settings: Homo sapiens, DU-145, 72 hours.
Type: cell-based
Description: (§1) To further test activity of these molecules, a whole-cell study involving cancer lines with known abherrant STAT3 expression was conducted. These human cell lines, including prostate cancer (DU145), breast cancer (MDA468), and promyelocytic leukemia (HL-60) were treated with the peptidomimetics and incubated for 72 hours. Disruption of cell viability was measured by MTS assay and IC50 values for the potential inhibitors was determined. OriginPro 8 (Northampton, Mass.) was used to evaluate EC50 using the dose response curve defined as follows:
(§2) [formula] where y is the fraction of death, x is the log of drug concentration. A2 is the top asymptote, A1 is the bottom asymptote, logx0 is the center of the curve, and p is the hill slope.

IC50 [µM] | Structure (SMILES)
> 100 | Cc1ccc(S(=O)(=O)N(C)CC(=O)N(Cc2ccc(-c3ccc(C(=O)O)cc3)cc2)c2ccc(C(=O)O)c(O)c2)cc1 [Compound 27LE, 4′-((N-(4-carboxy-3-hydroxyphenyl)-2-(N,4-dimethylphenylsulfonamido)acetamido)methyl)-[1,1′-biphenyl]-4-carboxylic acid]
> 100 | Cc1ccc(S(=O)(=O)N(C)CC(=O)N(Cc2ccc(-c3ccc(-c4cccc(C#N)c4)cc3)cc2)c2ccc(C(=O)O)c(O)c2)cc1 [Compound 27NC]

What follows are compounds tested on HL60 cells (assay: Cell viability, MTS assay). Settings: Homo sapiens, HL-60, HL60, 72 hours.
Type: cell-based
Description: as §1, §2

IC50 [µM] | Structure (SMILES)
68 ± 32.8 | Cc1ccc(S(=O)(=O)N(C)CC(=O)N(Cc2ccc(-c3ccc(C(=O)O)cc3)cc2)c2ccc(C(=O)O)c(O)c2)cc1 [Compound 27LE, 4′-((N-(4-carboxy-3-hydroxyphenyl)-2-(N,4-dimethylphenylsulfonamido)acetamido)methyl)-[1,1′-biphenyl]-4-carboxylic acid]
82.8 ± 19 | Cc1ccc(S(=O)(=O)N(C)CC(=O)N(Cc2ccc(-c3ccc(-c4cccc(C#N)c4)cc3)cc2)c2ccc(C(=O)O)c(O)c2)cc1 [Compound 27NC]

What follows are compounds tested on MDA-468 cells (assay: Cell viability, MTS assay). Settings: Homo sapiens, MDA-468, 72 hours.
Type: cell-based
Description: as §1, §2

Structure (SMILES) | IC50 [µM]
Cc1ccc(S(=O)(=O)N(C)CC(=O)N(Cc2ccc(-c3ccc(C(=O)O)cc3)cc2)c2ccc(C(=O)O)c(O)c2)cc1 [Compound 27LE, 4′-((N-(4-carboxy-3-hydroxyphenyl)-2-(N,4-dimethylphenylsulfonamido)acetamido)methyl)-[1,1′-biphenyl]-4-carboxylic acid] | 52.9 ± 22.5
Cc1ccc(S(=O)(=O)N(C)CC(=O)N(Cc2ccc(-c3ccc(-c4cccc(C#N)c4)cc3)cc2)c2ccc(C(=O)O)c(O)c2)cc1 [Compound 27NC] | 90.5 ± 63.2

These compounds were tested on OCI-AMI.2 cells (assay: Cell viability, MTS assay). Settings: not given.
Type: cell-based

IC50 [µM] | Structure (SMILES)
76.7 ± 27.1 | Cc1ccc(S(=O)(=O)N(C)CC(=O)N(Cc2ccc(-c3ccc(C(=O)O)cc3)cc2)c2ccc(C(=O)O)c(O)c2)cc1 [Compound 27LE, 4′-((N-(4-carboxy-3-hydroxyphenyl)-2-(N,4-dimethylphenylsulfonamido)acetamido)methyl)-[1,1′-biphenyl]-4-carboxylic acid]
> 100 | Cc1ccc(S(=O)(=O)N(C)CC(=O)N(Cc2ccc(-c3ccc(-c4cccc(C#N)c4)cc3)cc2)c2ccc(C(=O)O)c(O)c2)cc1 [Compound 27NC]
